Reference: the supplement of paper PMC11061612

Legend:
[1] = test system: DMS-114 (Small Cell Lung Carcinoma); assay: Bliss excess, mean over the matrix (fraction); higher = more synergy
Procedure, shortened: (§1)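 Bliss excess equals the observed combination effect minus the expected value EA + EB − EA·EB, where EA and EB are the effects of each agent alone. Combination Emax is the second-highest inhibition within the matrix. Inhibition was scaled from CellTiter-Glo 2.0 luminescence, with 0 set by vehicle wells and 1 by blank wells, after 72 hours of two-drug dosing of cells plated in 1536-well plates.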

[2] = test system: SK-GT-4 (Esophageal Adenocarcinoma); assay: as above
Procedure, shortened: as §1

C=CCn1c(=O)c2cnc(Nc3ccc(N4CCN(C)CC4)cc3)nc2n1-c1cccc(C(C)(C)O)n1 [AZD1775] + CCc1c2c(nc3ccc(O)cc13)-c1cc3c(c(=O)n1C2)COC(=O)[C@]3(O)CC [SN-38] (first compound max 1 µM, partner max 0.3 µM)
Bliss excess [1]: -0.0439 | Bliss excess [2]: 0.0211

CN(CCO)CC[C@H](CSc1ccccc1)Nc1ccc(S(=O)(=O)NC(=O)c2ccc(N3CCC([C@@H](O)c4ccccc4-c4ccc(Cl)cc4)CC3)cc2)cc1S(=O)(=O)C(F)(F)F [AZD4320] + CS(=O)(=O)CCNCc1ccc(-c2ccc3ncnc(Nc4ccc(OCc5cccc(F)c5)c(Cl)c4)c3c2)o1 [Lapatinib] (first compound max 1 µM, 7x7, partner max 10 µM)
Bliss excess [1]: 0.0146 | Bliss excess [2]: 0.0451

Cc1c2c(nn1C)CSCc1cc(n(C)n1)CSc1cc(c3ccccc3c1)OCCCc1c(C(=O)O)n(C)c3c-2c(Cl)ccc13 [AZD5991] + CC(=O)O[C@H]1C(=O)[C@@]2(C)[C@H]([C@H](OC(=O)c3ccccc3)[C@]3(O)C[C@H](OC(=O)[C@H](O)[C@@H](NC(=O)c4ccccc4)c4ccccc4)C(C)=C1C3(C)C)[C@]1(OC(C)=O)CO[C@@H]1C[C@@H]2O [Paclitaxel] (first compound max 1 µM, 7x7, partner max 3 µM)
Bliss excess [1]: 0.0975 | Bliss excess [2]: -0.0197

C[C@@H]1COCCN1c1cc(C2([S@](C)(=N)=O)CC2)nc(-c2ccnc3[nH]ccc23)n1 [AZD6738] + C1CC(C1)(C(=O)[O-])C(=O)[O-].N.N.[Pt+2] [Carboplatin] (first compound max 10 µM, 7x7, partner max 10 µM)
Bliss excess [1]: -0.095 | Bliss excess [2]: -0.0516

Cc1cc2ncnn2cc1Nc1ncc2c(n1)n(C1CCOCC1)c(=O)n2C [AZD7648] + COc1cc([C@@H]2c3cc4c(cc3[C@@H](O[C@@H]3O[C@@H]5CO[C@@H](C)O[C@H]5[C@H](O)[C@H]3O)[C@H]3COC(=O)[C@H]23)OCO4)cc(OC)c1O [Etoposide] (first compound max 10 µM, 7x7, partner max 10 µM)
Bliss excess [1]: 0.0198 | Bliss excess [2]: 0.0096

C[C@@H](Nc1cc(F)cc(F)c1)c1cc(C(=O)N(C)C)cc2c(=O)cc(N3CCOCC3)oc12 [AZD8186] + C1CN(CCC1(C(=O)N[C@@H](CCO)C2=CC=C(C=C2)Cl)N)C3=NC=NC4=C3C=CN4 [AZD5363] (first compound max 10 µM, 7x7, partner max 10 µM)
Bliss excess [1]: 0.0545 | Bliss excess [2]: -0.0478

C[C@@H](Nc1cc(F)cc(F)c1)c1cc(C(=O)N(C)C)cc2c(=O)cc(N3CCOCC3)oc12 [AZD8186] + CC(=O)c1c(C)c2cnc(Nc3ccc(N4CCNCC4)cn3)nc2n(C2CCCC2)c1=O [Palbociclib] (first compound max 10 µM, 7x7, partner max 10 µM)
Bliss excess [1]: 0.0178 | Bliss excess [2]: -0.0649

C[C@@H](Oc1cc(-c2cnn(C3CCNCC3)c2)cnc1N)c1c(Cl)ccc(F)c1Cl [Crizotinib] + Cn1cnc2c(F)c(Nc3ccc(Br)cc3Cl)c(C(=O)NOCCO)cc21 [Selumetinib] (first compound max 10 µM, 7x7, partner max 10 µM)
Bliss excess [1]: -0.0814 | Bliss excess [2]: -0.0405

O=C(c1cc(Cc2n[nH]c(=O)c3ccccc23)ccc1F)N1CCN(C(=O)C2CC2)CC1 [Olaparib] + CC1(C)CCC(CN2CCN(c3ccc(C(=O)NS(=O)(=O)c4ccc(NCC5CCOCC5)c([N+](=O)[O-])c4)c(Oc4cnc5[nH]ccc5c4)c3)CC2)=C(c2ccc(Cl)cc2)C1 [Venetoclax] (first compound max 10 µM, 7x7, partner max 1 µM)
Bliss excess [1]: -0.0446 | Bliss excess [2]: -0.056

O=C(c1cc(Cc2n[nH]c(=O)c3ccccc23)ccc1F)N1CCN(C(=O)C2CC2)CC1 [Olaparib] + COc1nnc2ccc(N3CCC(c4ccc(OCCN5CCN(C)C(=O)[C@H]5C)cc4)CC3)nn12 [AZD5153] (first compound max 10 µM, 7x7, partner max 1 µM)
Bliss excess [1]: -0.13 | Bliss excess [2]: -0.0894

O=C(c1cc(Cc2n[nH]c(=O)c3ccccc23)ccc1F)N1CCN(C(=O)C2CC2)CC1 [Olaparib] + Cc1c2c(nn1C)CSCc1cc(n(C)n1)CSc1cc(c3ccccc3c1)OCCCc1c(C(=O)O)n(C)c3c-2c(Cl)ccc13 [AZD5991] (first compound max 10 µM, 7x7, partner max 1 µM)
Bliss excess [1]: 0.0106 | Bliss excess [2]: -0.061

N#Cc1cnc(Nc2cc(NC[C@H]3CNCCO3)c(C(F)(F)F)cn2)cn1 [SRA737] + C=CCn1c(=O)c2cnc(Nc3ccc(N4CCN(C)CC4)cc3)nc2n1-c1cccc(C(C)(C)O)n1 [AZD1775] (first compound max 10 µM, partner max 1 µM)
Bliss excess [1]: -0.0231 | Bliss excess [2]: 0.003

N#Cc1cnc(Nc2cc(NC[C@H]3CNCCO3)c(C(F)(F)F)cn2)cn1 [SRA737] + CCc1c2c(nc3ccc(O)cc13)-c1cc3c(c(=O)n1C2)COC(=O)[C@]3(O)CC [SN-38] (first compound max 10 µM, 7x7, partner max 0.3 µM)
Bliss excess [1]: -0.0589 | Bliss excess [2]: -0.0544

Cc1nc(-c2cn3c(n2)-c2ccc(-c4cnn(C(C)(C)C(N)=O)c4)cc2OCC3)n(C(C)C)n1 [Taselisib] + O=C(Nc1ccc2[nH]nc(-c3ccncc3)c2c1)[C@@H]1CCN(CC(=O)N2CCN(c3ccc(-c4ncccn4)cc3)CC2)C1 [SCH772984] (first compound max 10 µM, 7x7, partner max 5 µM)
Bliss excess [1]: 0.005 | Bliss excess [2]: 0.0428

CC1(C)CCC(CN2CCN(c3ccc(C(=O)NS(=O)(=O)c4ccc(NCC5CCOCC5)c([N+](=O)[O-])c4)c(Oc4cnc5[nH]ccc5c4)c3)CC2)=C(c2ccc(Cl)cc2)C1 [Venetoclax] + CS(=O)(=O)CCNCc1ccc(-c2ccc3ncnc(Nc4ccc(OCc5cccc(F)c5)c(Cl)c4)c3c2)o1 [Lapatinib] (first compound max 1 µM, 7x7, partner max 10 µM)
Bliss excess [1]: -0.0443 | Bliss excess [2]: -0.0436
